In patent US20180369203A1, “METHODS OF TREATING CANCER BY ADMINISTERING A MEK INHIBITOR IN COMBINATION WITH A PROTEASOME INHIBITOR” (The Jackson Laboratory, priority 2015, published 2018):

System: A2058 cells
Experiment: A2058 s.c. melanoma xenograft in NOD/SCID mice
Assay type: in vivo
Method: FIGS. 6A-N show combined MEK and proteasome inhibition exerts potent tumor-suppressive effects. (A) After treatments with 20 nM AZD6244, 100 nM Bortezomib, or both for 24 hr, viable cells were quantitated by CellTiter® Blue (mean±SD, n=6, ANOVA). (B and C) 1×10^6 A2058 cells were s.c. injected into NOD/SCID mice. After 7 days, mice were treated with DMSO, 5 mg/Kg AZD6244, 0.5 mg/Kg Bortezomib, or the combination via i.p. injection three times a week. Tumor volumes were measured using a caliper weekly (mean±SEM, ANOVA). Tumor growth curves were fitted to exponential growth models to derive tumor-doubling time (DT). Kaplan-Meier survival curve was plotted for each group (Log-rank test). (D) Proteins were detected by immunoblotting, 3 tumors per group. (E) Tumor lysates were used to quantitate AOs, 5 tumors per group (mean±SD, n=3, ANOVA). (F) Tumor lysates were used to seed Aβ1-42 peptides, 5 tumors per group (mean±SD, n=3, ANOVA). (G-H) Tumor sections were stained with CR, 5 tumors per group. Ten random fields were taken for each section. Scale bar: 50 μm. Total CR fluorescence in each field was quantitated using ImageJ and normalized against total nuclei (median, n=50, ANOVA). (I) Following CR staining, tumor sections were visualized under polarized light microscopy. Scale bar: 50 μm. (J) Following staining with AF-specific antibodies (OC), sections of tumors receiving combined treatment were further stained with CR. Scale bar: 50 μm. […] Body weights were monitored weekly (mean±SD, n=10, ANOVA). […]
FIG. 13A-J illustrates combined MEK and proteasome inhibition disrupts proteostasis and impedes in vivo tumor growth. […] Body weights were recorded before xenografting and at sacrifice. […] Quantitation of immunoblotting results in FIG. 6D (mean±SD, n=3, ANOVA). […] Lys48-specific protein ubiquitination and caspase 3 cleavage were measured by immunoblotting in 3 spleens per group.
A2058 cells were s.c. injected into the left flanks of 9-week-old female NOD.CB17-Prkdc/J (NOD/SCID) mice (The Jackson Laboratory). […] Tumor volumes were calculated following the formula 4/3πR^3. […]

CC(C)C[C@H](NC(=O)[C@H](Cc1ccccc1)NC(=O)c1cnccn1)B(O)O [Bortezomib, bortezomib]
growth of xenografted melanomas (5 mg/Kg AZD6244, 0.5 mg/Kg Bortezomib or combination, i.p. three times a week): no significant impacts | HSF1 Ser326 phosphorylation and HSP expression in tumors (stress response) (tumor immunoblotting): induced | ubiquitination in tumors (tumor immunoblotting, 3 tumors per group): slightly elevated
